Test results as given in patent US8481750B2 (Boehringer Ingelheim International GmbH, priority 2009, dated 2013).

target: LFA-1 binding to ICAM-1 (Homo sapiens, UniProt P05107+P20701); test: Inhibition of LFA-1 binding to ICAM-1 (LFA-1/Biotin-sICAM-1 AlphaScreen molecular assay); conditions: highest compound concentration 1 μM in 1% DMSO, 37° C., 90 minutes
Excerpt: Assay to Determine Inhibition of LFA-1 Binding to ICAM-1
This assay protocol is designed to study the direct antagonism, by a test compound, of the interaction of ICAM-1 with the Leukointegrin CD18/CD11a (LFA-1).
The LFA-1/Biotin-sICAM-1 molecular assay measures the ability of test compounds to inhibit binding of LFA-1 to Biotinylated-sICAM using AlphaScreen technology (Ref: Wilson, J, Rossi, C P, Carboni, S, Fremaux, C, Perrin, D, Soto, C, Kosco-Vilbois, M, and Scheer, A: A Homogeneous 384-Well High-Throughput Binding Assay for a TNF Receptor Using Alphascreen Technology. J Biomol Screen 2003; 8:522-532) that uses TS2/4(anti-LFA-1)-custom conjugated AlphaLisa acceptor beads and streptavidin-coated donor beads from PerkinElmer. The assay was performed in white OptiPlates-384 in a volume of 60 μL using assay buffer (Dulbecco's PBS containing calcium and magnesium, 2 mM MgCl2, 0.1 mM PMSF, 0.1% BSA, pH 7.1). To each well, Biotin-sICAM was added followed by purified LFA-1 (in buffer of 50 mM triethylamine, 150 mM NaCl, 1% beta octylglucoside, 2 mM MgCl2 neutralized to pH with 1M Tris-HCl, pH 7.5). For compound testing, compound was added in 5 uL to the above in 25 uL. LFA-1 and Biotin-sICAM-1 were used at concentrations that would yield a signal to background ratio of 8-10. The highest concentration of compound was 1 μM in 1% DMSO. Positive controls were wells without compound containing LFA-1, while blanks were wells without both compound and LFA-1. Plates were mixed and incubated at 37° C. for 90 minutes. This was followed by addition of 15 μL/well TS2/4-congugated acceptor beads diluted in PBS containing 0.1% BSA for a final concentration of 10 μg/mL. The plates were mixed and incubated in the dark for 30 minutes at room temperature followed by addition of 15 μL/well streptavidin-coated donor beads diluted in PBS containing 0.1% BSA at a final concentration of 15 μg/mL. The plates were mixed and incubated in the dark for 60 minutes at room temperature and then read on an EnVision Multilabel Reader using AlphaScreen 384-well OptiPlate protocol.

Chain of LFA-1 binding to ICAM-1 (P20701 26-1170): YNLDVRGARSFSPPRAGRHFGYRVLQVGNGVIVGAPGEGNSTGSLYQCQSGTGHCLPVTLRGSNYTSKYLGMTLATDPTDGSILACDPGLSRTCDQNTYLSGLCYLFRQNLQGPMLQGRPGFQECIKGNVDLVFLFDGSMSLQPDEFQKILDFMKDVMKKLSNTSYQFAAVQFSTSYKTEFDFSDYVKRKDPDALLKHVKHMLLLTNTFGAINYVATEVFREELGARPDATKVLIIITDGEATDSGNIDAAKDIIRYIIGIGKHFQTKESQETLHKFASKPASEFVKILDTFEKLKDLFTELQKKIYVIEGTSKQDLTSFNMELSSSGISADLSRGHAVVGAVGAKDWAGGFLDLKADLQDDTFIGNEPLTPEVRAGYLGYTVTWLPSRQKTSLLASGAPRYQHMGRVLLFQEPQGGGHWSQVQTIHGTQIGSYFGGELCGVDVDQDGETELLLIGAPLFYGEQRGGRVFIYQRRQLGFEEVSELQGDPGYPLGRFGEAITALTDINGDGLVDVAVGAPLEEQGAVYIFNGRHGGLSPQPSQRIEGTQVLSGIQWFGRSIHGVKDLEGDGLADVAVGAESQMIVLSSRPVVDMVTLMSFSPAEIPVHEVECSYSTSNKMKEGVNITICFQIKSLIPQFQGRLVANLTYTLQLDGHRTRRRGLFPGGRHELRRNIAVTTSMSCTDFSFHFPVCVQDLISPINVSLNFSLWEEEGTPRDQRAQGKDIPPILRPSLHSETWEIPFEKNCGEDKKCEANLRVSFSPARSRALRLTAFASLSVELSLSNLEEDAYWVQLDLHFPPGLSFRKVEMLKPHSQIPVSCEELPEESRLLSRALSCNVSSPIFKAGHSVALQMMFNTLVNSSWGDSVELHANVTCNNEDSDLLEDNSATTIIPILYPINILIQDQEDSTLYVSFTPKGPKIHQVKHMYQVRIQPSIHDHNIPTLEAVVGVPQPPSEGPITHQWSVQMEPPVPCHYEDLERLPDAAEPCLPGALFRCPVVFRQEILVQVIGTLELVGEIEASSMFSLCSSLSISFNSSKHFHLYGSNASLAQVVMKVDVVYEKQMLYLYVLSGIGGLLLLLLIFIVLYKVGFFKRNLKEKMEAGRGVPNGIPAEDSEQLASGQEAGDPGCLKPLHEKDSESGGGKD
Chain of LFA-1 binding to ICAM-1 (P05107 23-769): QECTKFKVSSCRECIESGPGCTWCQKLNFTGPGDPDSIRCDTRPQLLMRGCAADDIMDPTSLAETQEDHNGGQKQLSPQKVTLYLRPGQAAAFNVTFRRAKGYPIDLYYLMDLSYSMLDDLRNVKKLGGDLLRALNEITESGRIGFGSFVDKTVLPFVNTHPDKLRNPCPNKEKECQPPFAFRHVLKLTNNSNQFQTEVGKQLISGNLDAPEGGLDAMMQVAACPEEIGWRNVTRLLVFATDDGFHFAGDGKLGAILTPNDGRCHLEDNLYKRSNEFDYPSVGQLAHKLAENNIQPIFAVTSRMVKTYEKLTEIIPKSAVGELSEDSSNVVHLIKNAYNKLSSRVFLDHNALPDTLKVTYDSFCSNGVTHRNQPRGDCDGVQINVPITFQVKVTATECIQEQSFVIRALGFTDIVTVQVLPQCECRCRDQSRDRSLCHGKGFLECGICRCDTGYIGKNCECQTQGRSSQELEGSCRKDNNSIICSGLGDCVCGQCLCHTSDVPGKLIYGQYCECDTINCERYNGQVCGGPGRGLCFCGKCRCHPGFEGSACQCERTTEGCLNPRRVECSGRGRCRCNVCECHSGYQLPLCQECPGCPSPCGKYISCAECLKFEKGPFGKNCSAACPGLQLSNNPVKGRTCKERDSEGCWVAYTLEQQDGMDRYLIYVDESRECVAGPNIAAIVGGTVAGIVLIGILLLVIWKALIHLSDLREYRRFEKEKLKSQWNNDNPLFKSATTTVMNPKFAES

SMILES	IC50
CN(C)C1CCN(C(=O)c2ccnc(C3(NC(=O)C4(NC(=O)c5cnc6n5[C@](C)(Cc5ccc(C#N)cc5)C(=O)N6c5cc(Cl)cc(Cl)c5)CC4)CC3)c2)C1 (stereo partly drawn) [Compound 1]	1.4 nM
C[C@@]1(Cc2ccc(C#N)cc2)C(=O)N(c2cc(Cl)cc(Cl)c2)c2ncc(C(=O)NC3(C(=O)NC4(c5ccc(C(=O)NCc6ccco6)cn5)CC4)CC3)n21 [compound 3]	0.29 nM
C[C@@]1(Cc2ccc(C#N)cc2)C(=O)N(c2cc(Cl)cc(Cl)c2)c2ncc(C(=O)NC3(C(=O)NC4(c5ccc(C(=O)N6CC[C@@H](O)C6)cn5)CC4)CC3)n21 [compound 5]	0.59 nM
C[C@@]1(Cc2ccc(C#N)cc2)C(=O)N(c2cc(Cl)cc(Cl)c2)c2ncc(C(=O)NC3(C(=O)NC4(c5cc(C(=O)NCCc6ccccn6)ccn5)CC4)CC3)n21 [compound 6]	0.82 nM
C[C@@]1(Cc2ccc(C#N)cc2)C(=O)N(c2cc(Cl)cc(Cl)c2)c2ncc(C(=O)NC3(C(=O)NC4(c5cc(C(=O)N6CCC(CO)CC6)ccn5)CC4)CC3)n21 [compound 7]	1.4 nM
C[C@@]1(Cc2ccc(C#N)cc2)C(=O)N(c2cc(Cl)cc(Cl)c2)c2ncc(C(=O)NC3(C(=O)NC4(c5ccc(C(=O)N6CCC[C@H]6C(N)=O)cn5)CC4)CC3)n21 [compound 8]	1.6 nM
C[C@@]1(Cc2ccc(C#N)cc2)C(=O)N(c2cc(Cl)cc(Cl)c2)c2ncc(C(=O)NC3(C(=O)NC4(c5ccc(C(=O)N6CCCCC6)cn5)CC4)CC3)n21 [compound 9]	1.8 nM
C[C@H](NC(=O)c1ccnc(C2(NC(=O)C3(NC(=O)c4cnc5n4[C@](C)(Cc4ccc(C#N)cc4)C(=O)N5c4cc(Cl)cc(Cl)c4)CC3)CC2)c1)c1ccccc1 [compound 10]	6.2 nM
CC(NC(=O)c1cccc(C2(NC(=O)C3(NC(=O)c4cnc5n4[C@](C)(Cc4ccc(C#N)cc4)C(=O)N5c4cc(Cl)cc(Cl)c4)CC3)CC2)n1)c1ccccn1 (stereo partly drawn) [compound 12]	8.5 nM
C[C@@]1(Cc2ccc(C#N)cc2)C(=O)N(c2cc(Cl)cc(Cl)c2)c2ncc(C(=O)NC3(C(=O)NC4(c5ccc(C(=O)NCC6CC6)cn5)CC4)CC3)n21 [compound 13]	0.44 nM
C[C@@]1(Cc2ccc(C#N)cc2)C(=O)N(c2cc(Cl)cc(Cl)c2)c2ncc(C(=O)NC3(C(=O)NC4(c5ccc(C(=O)NCC(N)=O)cn5)CC4)CC3)n21 [compound 14]	0.27 nM
C[C@@H](CO)NC(=O)c1ccnc(C2(NC(=O)C3(NC(=O)c4cnc5n4[C@](C)(Cc4ccc(C#N)cc4)C(=O)N5c4cc(Cl)cc(Cl)c4)CC3)CC2)c1 [compound 17]	0.18 nM
C[C@@]1(Cc2ccc(C#N)cc2)C(=O)N(c2cc(Cl)cc(Cl)c2)c2ncc(C(=O)NC3(C(=O)NC4(c5ccc(C(=O)NCc6cccnc6)cn5)CC4)CC3)n21 [compound 21]	0.81 nM
C[C@@]1(Cc2ccc(C#N)cc2)C(=O)N(c2cc(Cl)cc(Cl)c2)c2ncc(C(=O)NC3(C(=O)NC4(c5cccc(C(=O)N6CCCC(C(N)=O)C6)n5)CC4)CC3)n21 (stereo partly drawn) [compound 23]	2.6 nM
C[C@@]1(Cc2ccc(C#N)cc2)C(=O)N(c2cc(Cl)cc(Cl)c2)c2ncc(C(=O)NC3(C(=O)NC4(c5cc(C(=O)NCc6ccccc6)ccn5)CC4)CC3)n21 [compound 24]	4.1 nM
C[C@@]1(Cc2ccc(C#N)cc2)C(=O)N(c2cc(Cl)cc(Cl)c2)c2ncc(C(=O)NC3(C(=O)NC4(c5ccc(C(=O)N6CCCC(CO)C6)cn5)CC4)CC3)n21 (stereo partly drawn) [compound 29]	0.43 nM
CNC(=O)c1ccnc(C2(NC(=O)C3(NC(=O)c4cnc5n4[C@](C)(Cc4ccc(C#N)cc4)C(=O)N5c4cc(Cl)cc(Cl)c4)CC3)CC2)c1 [compound 31]	0.67 nM
C[C@@]1(Cc2ccc(C#N)cc2)C(=O)N(c2cc(Cl)cc(Cl)c2)c2ncc(C(=O)NC3(C(=O)NC4(c5cc(C(=O)NCCc6ccccc6)ccn5)CC4)CC3)n21 [compound 32]	4 nM
C[C@H](NC(=O)c1ccc(C2(NC(=O)C3(NC(=O)c4cnc5n4[C@](C)(Cc4ccc(C#N)cc4)C(=O)N5c4cc(Cl)cc(Cl)c4)CC3)CC2)nc1)c1ccccc1 [compound 33]	2.7 nM
C[C@@]1(Cc2ccc(C#N)cc2)C(=O)N(c2cc(Cl)cc(Cl)c2)c2ncc(C(=O)NC3(C(=O)NC4(c5ccc(C(=O)NCc6ccccn6)cn5)CC4)CC3)n21 [compound 36]	0.25 nM
CN1CCN(C(=O)c2ccc(C3(NC(=O)C4(NC(=O)c5cnc6n5[C@](C)(Cc5ccc(C#N)cc5)C(=O)N6c5cc(Cl)cc(Cl)c5)CC4)CC3)nc2)CC1 [compound 37]	2.4 nM
COCCNC(=O)c1ccc(C2(NC(=O)C3(NC(=O)c4cnc5n4[C@](C)(Cc4ccc(C#N)cc4)C(=O)N5c4cc(Cl)cc(Cl)c4)CC3)CC2)nc1 [compound 41]	0.14 nM
C[C@@]1(Cc2ccc(C#N)cc2)C(=O)N(c2cc(Cl)cc(Cl)c2)c2ncc(C(=O)NC3(C(=O)NC4(c5ccc(C(=O)N6CCOCC6)cn5)CC4)CC3)n21 [compound 42]	0.35 nM
C[C@@]1(Cc2ccc(C#N)cc2)C(=O)N(c2cc(Cl)cc(Cl)c2)c2ncc(C(=O)NC3(C(=O)NC4(c5cc(C(=O)N6CCCC(C(N)=O)C6)ccn5)CC4)CC3)n21 (stereo partly drawn) [compound 43]	0.74 nM
C[C@@]1(Cc2ccc(C#N)cc2)C(=O)N(c2cc(Cl)cc(Cl)c2)c2ncc(C(=O)NC3(C(=O)NC4(c5cc(C(=O)N6CCCCC6CO)ccn5)CC4)CC3)n21 (stereo partly drawn) [compound 44]	0.88 nM

More lines, now with the values ahead:

IC50	SMILES
0.92 nM	C[C@@]1(Cc2ccc(C#N)cc2)C(=O)N(c2cc(Cl)cc(Cl)c2)c2ncc(C(=O)NC3(C(=O)NC4(c5cc(C(=O)NCCO)ccn5)CC4)CC3)n21 [compound 4]
3.4 nM	C[C@@]1(Cc2ccc(C#N)cc2)C(=O)N(c2cc(Cl)cc(Cl)c2)c2ncc(C(=O)NC3(C(=O)NC4(c5cccc(C(=O)N6CCCC6)n5)CC4)CC3)n21 [compound 11]
1.5 nM	CC(=O)NC1CCN(C(=O)c2cccc(C3(NC(=O)C4(NC(=O)c5cnc6n5[C@](C)(Cc5ccc(C#N)cc5)C(=O)N6c5cc(Cl)cc(Cl)c5)CC4)CC3)n2)C1 (stereo partly drawn) [compound 15]
12 nM	C[C@@]1(Cc2ccc(C#N)cc2)C(=O)N(c2cc(Cl)cc(Cl)c2)c2ncc(C(=O)NC3(C(=O)NC4(c5cccc(C(=O)N6CCCCC6)n5)CC4)CC3)n21 [compound 16]
1.8 nM	C[C@@]1(Cc2ccc(C#N)cc2)C(=O)N(c2cc(Cl)cc(Cl)c2)c2ncc(C(=O)NC3(C(=O)NC4(c5cccc(C(=O)N6CCC(CO)CC6)n5)CC4)CC3)n21 [compound 18]
1 nM	CN(CCO)C(=O)c1cccc(C2(NC(=O)C3(NC(=O)c4cnc5n4[C@](C)(Cc4ccc(C#N)cc4)C(=O)N5c4cc(Cl)cc(Cl)c4)CC3)CC2)n1 [compound 20]
2.1 nM	CC(=O)N1CCN(C(=O)c2cccc(C3(NC(=O)C4(NC(=O)c5cnc6n5[C@](C)(Cc5ccc(C#N)cc5)C(=O)N6c5cc(Cl)cc(Cl)c5)CC4)CC3)n2)CC1 [compound 22]
32 nM	C[C@@]1(Cc2ccc(C#N)cc2)C(=O)N(c2cc(Cl)cc(Cl)c2)c2ncc(C(=O)NC3(C(=O)NC4(c5cccc(C(=O)NCc6ccccc6)n5)CC4)CC3)n21 [compound 25]
5.2 nM	C[C@@]1(Cc2ccc(C#N)cc2)C(=O)N(c2cc(Cl)cc(Cl)c2)c2ncc(C(=O)NC3(C(=O)NC4(c5cccc(C(=O)NCc6ccncc6)n5)CC4)CC3)n21 [compound 26]
0.74 nM	CC(CO)NC(=O)c1ccc(C2(NC(=O)C3(NC(=O)c4cnc5n4[C@](C)(Cc4ccc(C#N)cc4)C(=O)N5c4cc(Cl)cc(Cl)c4)CC3)CC2)nc1 (stereo partly drawn) [compound 27]
2.5 nM	C[C@@]1(Cc2ccc(C#N)cc2)C(=O)N(c2cc(Cl)cc(Cl)c2)c2ncc(C(=O)NC3(C(=O)NC4(c5cccc(C(=O)N6CCC[C@H]6C(N)=O)n5)CC4)CC3)n21 [compound 28]
0.91 nM	C[C@@]1(Cc2ccc(C#N)cc2)C(=O)N(c2cc(Cl)cc(Cl)c2)c2ncc(C(=O)NC3(C(=O)NC4(c5cccc(C(=O)NCCO)n5)CC4)CC3)n21 [compound 30]
0.7 nM	CN(CCO)C(=O)c1ccnc(C2(NC(=O)C3(NC(=O)c4cnc5n4[C@](C)(Cc4ccc(C#N)cc4)C(=O)N5c4cc(Cl)cc(Cl)c4)CC3)CC2)c1 [compound 34]
0.39 nM	C[C@@]1(Cc2ccc(C#N)cc2)C(=O)N(c2cc(Cl)cc(Cl)c2)c2ncc(C(=O)NC3(C(=O)NC4(c5ccc(C(=O)NCCO)cn5)CC4)CC3)n21 [compound 35]
0.87 nM	CN(C)C(=O)c1ccnc(C2(NC(=O)C3(NC(=O)c4cnc5n4[C@](C)(Cc4ccc(C#N)cc4)C(=O)N5c4cc(Cl)cc(Cl)c4)CC3)CC2)c1 [compound 38]
3.6 nM	C[C@@]1(Cc2ccc(C#N)cc2)C(=O)N(c2cc(Cl)cc(Cl)c2)c2ncc(C(=O)NC3(C(=O)NC4(c5cccc(C(=O)N6CCNCC6)n5)CC4)CC3)n21 [compound 39]
1.3 nM	C[C@@]1(Cc2ccc(C#N)cc2)C(=O)N(c2cc(Cl)cc(Cl)c2)c2ncc(C(=O)NC3(C(=O)NC4(c5cccc(C(=O)NCCN)n5)CC4)CC3)n21 [compound 40]
